In patent publication US20260250320A1, “LIPIDATED PEPTIDE INHIBITORS OF INTERLEUKIN-23 RECEPTOR” (Janssen Pharmaceutica NV, priority 2023, published 2026) one finds IC50 data, which are given here for three compounds.

For one assay, the target named is T1, IL-23R (Homo sapiens, UniProt Q5VWK5).
T1 construct: HEK293 cells containing IL-23R, IL-12Rβ1 and a firefly luciferase reporter gene driven by a STAT-inducible promoter (Promega); host or cells: HEK293
T1 sequence (Q5VWK5 24-629): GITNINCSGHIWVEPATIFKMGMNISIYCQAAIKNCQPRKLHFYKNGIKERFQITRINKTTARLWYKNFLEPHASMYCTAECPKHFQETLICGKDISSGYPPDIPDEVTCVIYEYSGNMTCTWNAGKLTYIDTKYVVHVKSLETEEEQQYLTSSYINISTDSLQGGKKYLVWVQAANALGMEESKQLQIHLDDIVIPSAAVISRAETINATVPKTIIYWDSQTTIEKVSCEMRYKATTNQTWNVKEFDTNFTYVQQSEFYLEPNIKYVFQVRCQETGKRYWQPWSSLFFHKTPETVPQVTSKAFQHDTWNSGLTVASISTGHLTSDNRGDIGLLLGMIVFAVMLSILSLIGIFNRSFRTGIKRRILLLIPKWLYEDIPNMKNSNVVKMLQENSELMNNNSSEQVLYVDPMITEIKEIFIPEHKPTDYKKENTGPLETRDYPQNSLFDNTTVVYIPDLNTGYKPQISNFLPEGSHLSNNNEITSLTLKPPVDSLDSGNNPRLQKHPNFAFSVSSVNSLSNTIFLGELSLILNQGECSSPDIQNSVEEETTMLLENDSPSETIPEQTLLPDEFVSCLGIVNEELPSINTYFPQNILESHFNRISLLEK
Nature of the assay: IL23R Reporter Assay. The class given is cell-based. Conditions: HEK293 cells containing IL-23R, IL-12Rβ1 and STAT-inducible firefly luciferase reporter; 10 ng/mL IL-23 (EC90); 5 h. The essentials: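 HEK293 cells carrying IL-23R, IL-12Rβ1 and a STAT-driven firefly luciferase reporter (4000 cells/well) received compound, then 10 ng/mL IL-23 solution (EC90), and were incubated for 5 h at 37° C. BioGlo luminescence was normalised to IL-23 alone (0%) and 30 μM control inhibitor (100%). IC50 came from a 4-parameter Hill fit.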
Background: In a reporter assay the amount or activity of a reporter protein is the signal.

For assay [1], the system named is IL-23-stimulated phosphorylated STAT3 in peripheral blood mononuclear cells (PBMCs). Nature of the assay: PBMC pSTAT3 Assay. Format: cell-based. Conditions: PBMCs from healthy donors; 30 min preincubation with peptide; IL-23 5 ng/mL for 30 min; phospho-STAT3 by MSD. The essentials: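 Healthy-donor PBMCs expanded 4 days on anti-CD3 with 100 ng/mL IL-1β, starved ~4 h in RPMI-0.1% BSA, preincubated 30 min with peptide, then stimulated 30 min at 37 °C with 5 ng/mL IL-23. Lysate pSTAT3 measured by MSD phospho-STAT panel; IC50 derived.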

pIC50: −log10 of the molar value. *1 amine or outer side, *2 acyl side, *3 side chain or, on linkers, in order; H or OH if unused. Where a SMILES comes first, the peptide text is derived from it. Bridges are numbered along the chain shown (N, C = ends). Side-chain parts run from the residue outwards. [ ]: non-standard residue; d: D form. The star is where a group is joined. ξ: configuration not given here. X33 = C[N+](C)(CCNC(=O)CCOCCOCCOCCOCCOCCOCCOCCOCCOCCOCCOCCOCCNC(=O)CC[C@H](CC(=O)CCCCCCCCCCCCCCCCC(=O)O)C(=O)O)CC(=O)*; X30 = C[N+](C)(CCCC(=O)CCOCCOCCOCCOCCOCCOCCNC(=O)CC[C@H](NC(=O)CCCCCCCCCCCCCCCCC(=O)O)C(=O)O)CC(=O)*; X39 = O=C(O)CCCCCCCCCCCCCCCCC(=O)NC(CCC(=O)NCCCCCOCC(=O)*)C(=O)O; Me3N+(CH2)2O(CH2)2O(CH2)2CO = C[N+](C)(C)CCOCCOCCC(=O)*; Trp(7-Me) = Cc1cccc2c(C[C@H](N)C(=O)O)c[nH]c12; 2Nal = N[C@@H](Cc1ccc2ccccc2c1)C(=O)O; AEF = NCCOc1ccc(C[C@H](N)C(=O)O)cc1; X2 = C[N+](C)(C)C[C@@H](CC(=O)O)N*; 3Pal = N[C@@H](Cc1cccnc1)C(=O)O; Lys(Me) = CNCCCC[C@H](N)C(=O)O; NMeK = CN[C@@H](CCCCN)C(=O)O; Pen = CC(C)(S)[C@H](N)C(=O)O; Suc = O=C(CCC(=O)[*:2])[*:1]; ξ3Pal = NC(Cc1cccnc1)C(=O)O; Ac6c = NC1(C(=O)O)CCCCC1; Thp = NC1(C(=O)O)CCOCC1; Abu = CC[C@H](N)C(=O)O; X31 = C=C(CN(C)*)N(C)C; AEEA = NCCOCCOCC(=O)O; Sar = CNCC(=O)O

For orientation: pIC50 means −log10 of the IC50, conventionally taken in molar units. High values mean a small IC50, low ones a large IC50. On to `CC(=O)N(C)CCCC[C@@H]1NC(=O)[C@H](Cc2c[nH]c3c(C)cccc23)NC(=O)[C@H]([C@@H](C)O)NC(=O)[C@H](CC(=O)N(C)C)NC(=O)[C@@H](NC(=O)CCOCCOCC[N+](C)(C)C)C(C)(C)SSC(C)(C)[C@@H](C(=O)N[C@@H](Cc2ccc(OCCNC(=O)C[N+](C)(C)CCNC(=O)CCOCCOCCOCCOCCOCCOCCOCCOCCOCCOCCOCCOCCNC(=O)CC[C@H](CC(=O)CCCCCCCCCCCCCCCCC(=O)O)C(=O)O)cc2)C(=O)N[C@@H](Cc2ccc3ccccc3c2)C(=O)NC2(C(=O)N[C@@H](CCCCN(C)C(C)=O)C(=O)N[C@@H](CC(N)=O)C(=O)NC(Cc3cccnc3)C(=O)N(C)CC(=O)N(C)C)CCCCC2)NC1=O` (stereo partly drawn) [compound 141, cPEG3aCO-Pen(3)-N(N(Me)2)-T-7MeW-K(NMeAc)-Pen(3)-AEF(SP6PEG12gEC18OH)-2Nal-THP-K(NMeAc)-N-3Pya-Sar-CON(Me)2] ({Me3N+(CH2)2O(CH2)2O(CH2)2CO}-[Pen]D(NMe2)T[Trp(7-Me)][Lys(Me)](Ac)[Pen][AEF](X33)[2Nal][Ac6c][Lys(Me)](Ac)N[ξ3Pal][Sar]-NMe2; disulfide 1-6), for which the pIC50 against IL-23R was greater than 7.30; in assay [1], greater than 9.30.
`CC(=O)NCCCC[C@@H]1NC(=O)[C@H](Cc2c[nH]c3c(C)cccc23)NC(=O)[C@H]([C@@H](C)O)NC(=O)[C@H](CC(N)=O)NC(=O)[C@@H](NC(=O)[C@@H](CCCNC(=N)N)NC(C)=O)C(C)(C)SSC(C)(C)[C@@H](C(=O)N[C@@H](Cc2ccc(OCCN)cc2)C(=O)N[C@@H](Cc2ccc3ccccc3c2)C(=O)NC2(C(=O)N[C@@H](CCCCNC(=O)CCC(=O)N[C@H](CC(=O)O)C[N+](C)(C)C)C(=O)N[C@@H](CC(N)=O)C(=O)N[C@@H](Cc3cccnc3)C(=O)N(C)[C@@H](CCCCNC(=O)COCCOCCNC(=O)COCCCCCNC(=O)CCC(NC(=O)CCCCCCCCCCCCCCCCC(=O)O)C(=O)O)C(N)=O)CCOCC2)NC1=O` (stereo partly drawn) [compound 41, MeCO-r-Pen(3)-N-T-7MeW-K(Ac)-Pen(3)-AEF-2Nal-THP-K(d)-N-3Pya-NMeK(PEG2PEG2gEC18OH)-CONH2] (Ac-[dR][Pen]NT[Trp(7-Me)]K(Ac)[Pen][AEF][2Nal][Thp]K([Suc-X2])N[3Pal][NMeK]([AEEA-X39])-NH2; disulfide 2-7): the negative logarithm of the IC50 (pIC50) is 6.30 to 7.30 against IL-23R and greater than 9.30 in assay [1].
`C=C(CN(C)C(=O)C(Cc1cccnc1)NC(=O)[C@H](CC(N)=O)NC(=O)[C@H](CCCCN(C)C(C)=O)NC(=O)C1(NC(=O)[C@H](Cc2ccc3ccccc3c2)NC(=O)[C@H](Cc2ccc(OCCNC(=O)C[N+](C)(C)CCCC(=O)CCOCCOCCOCCOCCOCCOCCNC(=O)CC[C@H](NC(=O)CCCCCCCCCCCCCCCCC(=O)O)C(=O)O)cc2)NC(=O)[C@H]2NC(=O)[C@H](CCCCN(C)C(C)=O)NC(=O)[C@H](Cc3c[nH]c4ccccc34)NC(=O)[C@H]([C@@H](C)O)NC(=O)[C@H](CC)NC(=O)[C@@H](N)C(C)(C)SSC2(C)C)CCCCC1)N(C)C` (stereo partly drawn) [compound 142, cPEG3aCO-Pen(3)-N(N(Me)2)-T-7MeW-K(NMeAc)-Pen(3)-AEF(SP6PEG6gEC18OH)-2Nal-THP-K(NMeAc)-N-3Pya-Sar-CON(Me)2] (H-[Pen][Abu]TW[Lys(Me)](Ac)[Pen][AEF](X30)[2Nal][Ac6c][Lys(Me)](Ac)N[ξ3Pal]-X31; disulfide 1-6): the pIC50 was greater than 7.30 at IL-23R and greater than 9.30 in assay [1].
